Reference: paper PMC13288469, “Bile acids accumulate norovirus-like particles and enhance binding to and entry into human enteric epithelial cells” (Journal of Virology, 2026)

Each compound was assayed against T1, HuNoV GII.4 VLP (Human calicivirus NLV/DIJON171/96, UniProt Q8QY55) (assay: SPR, Biacore T-200, VLP immobilized on CM5 chip).
T1 construct: full VP1 virus-like particle, self-assembled, from baculovirus (Bac-to-Bac) infected SF-9 cells, sucrose gradient purified; amine-coupled to CM5 chip
Format: binding
Excerpt: SPR, Biacore T-200, VLP immobilized on CM5 chip on HuNoV GII.4 VLP
`C[C@H](CCC(=O)NCCS(=O)(=O)O)[C@H]1CC[C@H]2[C@@H]3CC[C@@H]4C[C@H](O)CC[C@]4(C)[C@H]3C[C@H](O)[C@]12C` [TDCA] showed a Kd of 308 ± 29.7 µM. `C[C@H](CCC(=O)NCCS(=O)(=O)O)[C@H]1CC[C@H]2[C@@H]3CC[C@@H]4C[C@H](O)CC[C@]4(C)[C@H]3CC[C@]12C` [TLCA] showed a Kd of 64 ± 9.9 µM. Compound `C[C@H](CCC(=O)O)[C@H]1CC[C@H]2[C@@H]3CC[C@@H]4C[C@H](O)CC[C@]4(C)[C@H]3C[C@H](O)[C@]12C` [DCA] has a Kd of 176 ± 4.9 µM. In the case of `C[C@H](CCC(=O)NCCS(=O)(=O)O)[C@H]1CC[C@H]2[C@@H]3[C@H](O)C[C@@H]4C[C@H](O)CC[C@]4(C)[C@H]3CC[C@]12C` [TCDCA], the Kd is reported as 236 ± 58 µM. For `C[C@H](CCC(=O)NCC(=O)O)[C@H]1CC[C@H]2[C@@H]3CC[C@@H]4C[C@H](O)CC[C@]4(C)[C@H]3C[C@H](O)[C@]12C` [GDCA], the Kd was 286 ± 64.3 µM. In the case of `C[C@H](CCC(=O)NCC(=O)O)[C@H]1CC[C@H]2[C@@H]3[C@H](O)C[C@@H]4C[C@H](O)CC[C@]4(C)[C@H]3CC[C@]12C` [GCDCA], the Kd is reported as 123 ± 24 µM.
